Experimental data as given in ChEMBL document CHEMBL1201862, “PubChem BioAssay data set” (2004).
Calls of active or inactive are those of the source.

What was measured:
Bcl-2-related protein A1 [1] = molecular target: T1, Bcl-2-related protein A1 (Mus musculus, UniProt Q07440); experiment: small-molecule antagonists of Bfl-1/BH3 interaction – biochemical, TR-FRET, mouse Bfl-1, confirmation (AID 621);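 also: TR-FRET binding of GST-Bfl-1 to FITC-labelled Bid peptide via terbium antibody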
T1 sequence (Q07440 whole entry): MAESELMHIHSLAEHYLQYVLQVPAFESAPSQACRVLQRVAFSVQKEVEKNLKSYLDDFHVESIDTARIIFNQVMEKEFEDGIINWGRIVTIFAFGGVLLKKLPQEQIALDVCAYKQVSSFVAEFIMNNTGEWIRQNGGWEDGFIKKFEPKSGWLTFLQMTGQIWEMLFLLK

Bcl-2-related protein A1 [2] = molecular target: T1, Bcl-2-related protein A1; experiment: Bfl-1 binding inhibitors, SAR follow-up, biochemical, fluorescence polarization (AID 1070)
[3] = molecular target: Glyceraldehyde-3-phosphate dehydrogenase (Homo sapiens, UniProt P04406)
Chain of Glyceraldehyde-3-phosphate dehydrogenase (P04406 whole entry): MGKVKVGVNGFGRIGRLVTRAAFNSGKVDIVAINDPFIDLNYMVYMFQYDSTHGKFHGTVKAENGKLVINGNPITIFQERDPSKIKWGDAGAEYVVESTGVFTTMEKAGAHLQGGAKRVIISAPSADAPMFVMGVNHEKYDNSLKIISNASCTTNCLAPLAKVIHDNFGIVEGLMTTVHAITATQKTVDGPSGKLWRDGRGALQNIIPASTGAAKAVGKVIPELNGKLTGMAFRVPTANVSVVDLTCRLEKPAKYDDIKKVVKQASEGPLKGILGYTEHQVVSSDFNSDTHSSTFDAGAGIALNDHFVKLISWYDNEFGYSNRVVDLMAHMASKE

[4] = antiviral protection against BTV-induced cell death – arbovirus, BSR cells, confirmation (AID 1250); format: functional;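 also: protection from viral cytopathic effect measured as cell viability by ATP luminescence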
Insulin-degrading enzyme = molecular target: T2, Insulin-degrading enzyme (Homo sapiens, UniProt P14735); experiment: Dose Response: Fluorescence polarization-based cell-based high throughput dose response assay for inhibitors of insulin-degrading enzyme (IDE). [Related pubchem assays: 434962 (Primary screen (IDE inhibitors in singlicate)), 449730 (Counterscreen (Cytotoxicity in triplicate)), 435028 (Confirmation (IDE inhibitors in triplicate)), 434984 (Summary …; format: functional
T2 sequence (P14735 whole entry): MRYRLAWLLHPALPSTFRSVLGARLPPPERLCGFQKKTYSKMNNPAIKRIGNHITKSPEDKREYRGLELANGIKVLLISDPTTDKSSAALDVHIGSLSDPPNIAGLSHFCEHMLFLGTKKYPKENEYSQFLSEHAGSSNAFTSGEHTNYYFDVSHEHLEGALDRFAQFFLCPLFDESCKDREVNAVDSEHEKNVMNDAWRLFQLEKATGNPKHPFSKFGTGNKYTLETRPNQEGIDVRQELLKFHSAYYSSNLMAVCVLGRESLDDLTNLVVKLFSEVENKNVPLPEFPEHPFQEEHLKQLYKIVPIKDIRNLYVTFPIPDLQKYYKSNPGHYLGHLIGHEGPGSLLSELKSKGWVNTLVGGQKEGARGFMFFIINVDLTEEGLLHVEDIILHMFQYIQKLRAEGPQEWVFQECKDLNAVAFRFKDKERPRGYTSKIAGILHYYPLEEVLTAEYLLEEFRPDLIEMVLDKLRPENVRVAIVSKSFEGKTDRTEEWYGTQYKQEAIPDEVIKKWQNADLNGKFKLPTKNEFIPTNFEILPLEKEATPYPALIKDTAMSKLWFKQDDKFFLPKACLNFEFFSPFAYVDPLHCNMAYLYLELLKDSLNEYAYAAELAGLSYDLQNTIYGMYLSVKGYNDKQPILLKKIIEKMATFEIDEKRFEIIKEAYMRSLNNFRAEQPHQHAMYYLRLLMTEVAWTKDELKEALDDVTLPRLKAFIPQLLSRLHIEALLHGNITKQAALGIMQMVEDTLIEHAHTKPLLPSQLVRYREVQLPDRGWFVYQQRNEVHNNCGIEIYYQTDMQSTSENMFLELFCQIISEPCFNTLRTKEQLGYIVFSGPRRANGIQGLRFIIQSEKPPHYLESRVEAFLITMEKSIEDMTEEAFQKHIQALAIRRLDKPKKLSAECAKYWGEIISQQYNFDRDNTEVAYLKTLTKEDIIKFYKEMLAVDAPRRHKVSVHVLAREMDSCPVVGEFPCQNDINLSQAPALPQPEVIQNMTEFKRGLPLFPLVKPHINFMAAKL

[5] = Counterscreen for IDE inhibitors: Luminescence-based cell-based high throughput dose response assay to identify compounds that are cytotoxic to HEK cells. [Related pubchem assays: 434962 (Primary screen (IDE inhibitors in singlicate)), 449730 (Counterscreen (Cytotoxicity in triplicate)), 435028 (Confirmation (IDE inhibitors in triplicate)) …; format: functional; conditions: HEK293
Estrogen receptor = molecular target: T3, Estrogen receptor (Homo sapiens, UniProt P03372); experiment: blockers of SRC-3 recruitment to ERα – biochemical, ELISA, streptavidin-HRP readout, orthogonal assay, confirmation (AID 1079)
T3 sequence (P03372 whole entry): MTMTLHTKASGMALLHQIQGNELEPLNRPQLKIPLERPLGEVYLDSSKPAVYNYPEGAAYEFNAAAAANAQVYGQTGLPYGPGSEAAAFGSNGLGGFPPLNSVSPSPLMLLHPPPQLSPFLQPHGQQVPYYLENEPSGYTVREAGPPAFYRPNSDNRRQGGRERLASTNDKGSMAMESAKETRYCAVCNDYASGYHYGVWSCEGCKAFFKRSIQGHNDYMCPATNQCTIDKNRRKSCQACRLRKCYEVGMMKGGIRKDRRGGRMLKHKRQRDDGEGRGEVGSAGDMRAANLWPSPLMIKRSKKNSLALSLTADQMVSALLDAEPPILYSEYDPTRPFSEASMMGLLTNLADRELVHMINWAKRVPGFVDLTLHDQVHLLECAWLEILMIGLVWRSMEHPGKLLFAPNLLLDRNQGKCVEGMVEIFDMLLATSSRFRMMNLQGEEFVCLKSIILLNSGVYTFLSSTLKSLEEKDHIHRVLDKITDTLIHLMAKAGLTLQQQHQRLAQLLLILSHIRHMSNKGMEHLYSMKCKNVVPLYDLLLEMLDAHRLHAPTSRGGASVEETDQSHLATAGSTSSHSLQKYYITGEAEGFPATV

[6] = molecular target: Inward rectifier potassium channel 2 (Mus musculus, UniProt P35561); experiment: Manual electrophysiological patch clamp assay for SAR compounds that inhibit/block inward-rectifying potassium ion channel Kir2.1. [Related pubchem assays: 1843 (Summary assay for Kir2.1 inhibitor assays.), 1672 (Primary HTS of 305616 compounds where 2592 were identified as active.)]; format: functional
Chain of Inward rectifier potassium channel 2 (P35561 whole entry): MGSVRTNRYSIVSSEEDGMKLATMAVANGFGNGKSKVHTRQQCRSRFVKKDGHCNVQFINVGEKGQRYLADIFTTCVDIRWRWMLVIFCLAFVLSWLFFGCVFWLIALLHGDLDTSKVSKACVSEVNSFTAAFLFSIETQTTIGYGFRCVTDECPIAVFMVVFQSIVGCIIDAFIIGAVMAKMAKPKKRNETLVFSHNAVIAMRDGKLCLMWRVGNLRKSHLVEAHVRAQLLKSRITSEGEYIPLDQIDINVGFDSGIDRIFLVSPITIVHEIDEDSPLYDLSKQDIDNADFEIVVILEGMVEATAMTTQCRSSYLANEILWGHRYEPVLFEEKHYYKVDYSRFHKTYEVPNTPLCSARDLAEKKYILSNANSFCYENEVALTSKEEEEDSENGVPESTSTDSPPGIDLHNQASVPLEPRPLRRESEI

[7] = molecular target: Sphingosine 1-phosphate receptor 2 (Homo sapiens, UniProt O95136); experiment: Dose Response Cell Based Assay for Agonists of the S1P2 Receptor of Purchased Analogues. [Related pubchem assays: 729, 843, 854, 736 ]; format: functional
Chain of Sphingosine 1-phosphate receptor 2 (O95136 whole entry): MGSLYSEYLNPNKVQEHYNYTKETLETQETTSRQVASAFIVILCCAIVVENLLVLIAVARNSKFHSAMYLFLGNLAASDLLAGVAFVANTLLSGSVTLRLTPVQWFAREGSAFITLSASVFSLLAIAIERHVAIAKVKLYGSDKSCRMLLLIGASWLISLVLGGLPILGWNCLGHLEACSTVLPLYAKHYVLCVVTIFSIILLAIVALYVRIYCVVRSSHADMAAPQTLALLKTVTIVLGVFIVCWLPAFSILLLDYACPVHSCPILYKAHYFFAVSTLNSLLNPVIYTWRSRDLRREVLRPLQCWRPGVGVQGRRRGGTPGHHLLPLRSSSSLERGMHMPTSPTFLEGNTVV

HeLa = experiment: Cytotoxicity counterscreen assay for transcriptional activators of heat shock protein 70 (Hsp70). [Related pubchem assays: 1203, 1252 ]; format: functional; conditions: Homo sapiens;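 also: cells exposed to compound for 16 hours before readout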
[8] = non-specific 3'UTR reporter inhibition in Clone20-Shn3RL – cell-based, Renilla luciferase, cherry-picked, counter-screen for Shn3 inhibitor project, dose response (AID 624133); format: functional
[9] = molecular target: T4, Microphthalmia-associated transcription factor (Homo sapiens, UniProt O75030); experiment: reducers of TRPM1 reporter luminescence, concentration series – cell-based, SK-MEL-5, cherry-picked, set 3, MITF inhibitor project, dose response (AID 493073); format: functional;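 also: SK-MEL-5 melanoma cells with luciferase driven by the MITF target TRPM1 promoter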
T4 sequence (O75030 whole entry): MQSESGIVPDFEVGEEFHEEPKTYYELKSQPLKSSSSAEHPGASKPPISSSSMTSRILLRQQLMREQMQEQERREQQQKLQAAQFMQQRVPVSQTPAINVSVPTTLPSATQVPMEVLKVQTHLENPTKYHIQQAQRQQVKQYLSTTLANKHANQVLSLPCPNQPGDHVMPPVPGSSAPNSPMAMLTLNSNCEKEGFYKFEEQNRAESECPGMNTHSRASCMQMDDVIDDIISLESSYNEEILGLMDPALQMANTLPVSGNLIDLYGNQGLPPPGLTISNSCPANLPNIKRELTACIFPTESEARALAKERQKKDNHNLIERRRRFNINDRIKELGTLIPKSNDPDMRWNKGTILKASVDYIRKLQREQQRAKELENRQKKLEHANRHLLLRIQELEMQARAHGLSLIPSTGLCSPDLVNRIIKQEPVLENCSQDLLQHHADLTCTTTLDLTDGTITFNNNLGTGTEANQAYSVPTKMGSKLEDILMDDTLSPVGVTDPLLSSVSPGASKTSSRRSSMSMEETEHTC

[10] = loss of viability in HepG2 cells – cell-based, CellTiter-Glo, cherry-picked, cytotoxicity control for Shn3 inhibitor project, dose response (AID 624134); format: functional
[11] = reduction of Shn3 3'UTR-driven luciferase in osteoblasts – cell-based, Clone20 osteoblasts, firefly luciferase, cherry-picked, dose response (AID 624132); format: functional;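 also: firefly luciferase luminescence from reporter carrying the Shn3 3'UTR in osteoblasts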
Paired box protein Pax-8 = Paired box protein Pax-8 (Homo sapiens, UniProt Q06710); experiment: PAX8 transcriptional activity inhibition in RMG-I – RMG-I cells, luciferase, cherry-pick, dose response (AID 687027); format: functional, cell-based;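 also: luciferase reporter driven by Pax8 target thyroperoxidase promoter measured by SteadyGlo luminescence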
Chain of Paired box protein Pax-8 (Q06710 whole entry): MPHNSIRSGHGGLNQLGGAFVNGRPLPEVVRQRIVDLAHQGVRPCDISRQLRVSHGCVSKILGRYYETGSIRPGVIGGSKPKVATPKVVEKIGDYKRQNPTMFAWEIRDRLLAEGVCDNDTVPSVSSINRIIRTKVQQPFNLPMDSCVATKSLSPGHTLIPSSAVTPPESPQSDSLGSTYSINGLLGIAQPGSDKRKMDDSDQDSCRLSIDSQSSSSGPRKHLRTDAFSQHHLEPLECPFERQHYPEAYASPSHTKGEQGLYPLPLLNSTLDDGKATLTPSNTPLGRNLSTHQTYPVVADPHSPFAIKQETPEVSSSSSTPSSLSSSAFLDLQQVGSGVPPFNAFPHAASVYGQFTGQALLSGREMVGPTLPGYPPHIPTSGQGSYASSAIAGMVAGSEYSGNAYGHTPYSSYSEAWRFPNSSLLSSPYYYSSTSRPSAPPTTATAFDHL

HEK293 [12] = experiment: cells; conditions: Homo sapiens
[13] = microbe, parasite or virus in culture; format: functional; conditions: Mycobacterium tuberculosis
HEK293 [14] = experiment: cells; conditions: Homo sapiens; remark: listed apart in the source
[15] = A High Throughput Confirmatory Assay used to Identify Novel Compounds that Inhibit Mycobacterium Tuberculosis in the absence of Glycerol.; format: functional
Bcl-2-like protein 10 = Bcl-2-like protein 10 (Homo sapiens, UniProt Q9HD36); experiment: Concentration-response of Bcl-B inhibitors by biochemical FP with TR3 (AID 1243); format: functional
Chain of Bcl-2-like protein 10 (Q9HD36 whole entry): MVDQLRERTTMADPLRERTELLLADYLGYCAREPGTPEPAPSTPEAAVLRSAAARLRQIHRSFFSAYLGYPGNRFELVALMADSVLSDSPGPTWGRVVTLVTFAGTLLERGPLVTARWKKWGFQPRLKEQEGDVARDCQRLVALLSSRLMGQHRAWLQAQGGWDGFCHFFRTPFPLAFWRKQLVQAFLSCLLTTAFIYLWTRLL

[16] = Luminescence Cell-Based Dose Response to Identify Activators of 5'UTR Stem-Loop Driven Prion Protein mRNA Translation in H4-C Neuroglioblastoma Cells. [Related pubchem assays: 1829 (Project Summary), 1814 (Primary HTS)]; format: functional
[17] = Luminescence Cell-Based Dose Response to Identify Activators of Luciferase Translation or Activity in H4-C Neuroglioblastoma Cells. [Related pubchem assays: 1829 (Project Summary), 1814 (Primary HTS)]; format: functional
[18] = Luminescence Cell-Based Dose Confirmation to Identify Activators of 5'UTR Stem-Loop Driven Alpha-Synuclein mRNA Translation in H4 Neuroglioblastoma Cells. [Related pubchem assays: 1829 (Project Summary), 1814 (Primary HTS)]; format: functional
[19] = Luminescence Cell-Based Dose Response HTS to Identify Activators of Luciferase Translation or Activity in H4 […] Cells. [Related pubchem assays: 1829 (Project Summary), 1814 (Primary HTS)]; format: functional
Mucolipin-3 = Mucolipin-3 (Homo sapiens, UniProt Q8TDD5); experiment: Dose response cell-based high-throughput screening assay for agonists of the transient receptor potential channel ML3 (TRPML3). [Related pubchem assays: 1526, 1424, 1448 ]; format: functional
Chain of Mucolipin-3 (Q8TDD5 whole entry): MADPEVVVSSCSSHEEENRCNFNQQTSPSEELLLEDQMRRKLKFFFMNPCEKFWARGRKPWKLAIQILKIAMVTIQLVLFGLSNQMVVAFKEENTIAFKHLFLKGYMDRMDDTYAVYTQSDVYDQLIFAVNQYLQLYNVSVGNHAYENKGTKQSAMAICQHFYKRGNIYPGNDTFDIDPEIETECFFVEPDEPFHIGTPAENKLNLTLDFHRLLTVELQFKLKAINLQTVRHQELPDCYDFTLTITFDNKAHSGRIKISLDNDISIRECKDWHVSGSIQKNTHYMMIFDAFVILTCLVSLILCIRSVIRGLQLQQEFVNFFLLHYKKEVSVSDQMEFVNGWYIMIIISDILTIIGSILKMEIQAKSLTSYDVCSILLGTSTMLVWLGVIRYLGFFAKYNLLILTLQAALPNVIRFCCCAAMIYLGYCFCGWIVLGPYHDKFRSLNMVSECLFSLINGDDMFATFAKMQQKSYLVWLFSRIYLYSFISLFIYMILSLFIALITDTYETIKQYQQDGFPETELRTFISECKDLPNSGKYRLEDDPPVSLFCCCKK

Ion channel NompC = Ion channel NompC (Danio rerio, UniProt Q7T1G6); experiment: Fluorescence counterscreen assay for TRPML3 agonists: dose response cell-based high-throughput screening assay to identify agonists of the transient receptor potential channel N1 (TRPN1). [Related pubchem assays: 1526, 1424, 1448 ]; format: functional
Chain of Ion channel NompC (Q7T1G6 whole entry): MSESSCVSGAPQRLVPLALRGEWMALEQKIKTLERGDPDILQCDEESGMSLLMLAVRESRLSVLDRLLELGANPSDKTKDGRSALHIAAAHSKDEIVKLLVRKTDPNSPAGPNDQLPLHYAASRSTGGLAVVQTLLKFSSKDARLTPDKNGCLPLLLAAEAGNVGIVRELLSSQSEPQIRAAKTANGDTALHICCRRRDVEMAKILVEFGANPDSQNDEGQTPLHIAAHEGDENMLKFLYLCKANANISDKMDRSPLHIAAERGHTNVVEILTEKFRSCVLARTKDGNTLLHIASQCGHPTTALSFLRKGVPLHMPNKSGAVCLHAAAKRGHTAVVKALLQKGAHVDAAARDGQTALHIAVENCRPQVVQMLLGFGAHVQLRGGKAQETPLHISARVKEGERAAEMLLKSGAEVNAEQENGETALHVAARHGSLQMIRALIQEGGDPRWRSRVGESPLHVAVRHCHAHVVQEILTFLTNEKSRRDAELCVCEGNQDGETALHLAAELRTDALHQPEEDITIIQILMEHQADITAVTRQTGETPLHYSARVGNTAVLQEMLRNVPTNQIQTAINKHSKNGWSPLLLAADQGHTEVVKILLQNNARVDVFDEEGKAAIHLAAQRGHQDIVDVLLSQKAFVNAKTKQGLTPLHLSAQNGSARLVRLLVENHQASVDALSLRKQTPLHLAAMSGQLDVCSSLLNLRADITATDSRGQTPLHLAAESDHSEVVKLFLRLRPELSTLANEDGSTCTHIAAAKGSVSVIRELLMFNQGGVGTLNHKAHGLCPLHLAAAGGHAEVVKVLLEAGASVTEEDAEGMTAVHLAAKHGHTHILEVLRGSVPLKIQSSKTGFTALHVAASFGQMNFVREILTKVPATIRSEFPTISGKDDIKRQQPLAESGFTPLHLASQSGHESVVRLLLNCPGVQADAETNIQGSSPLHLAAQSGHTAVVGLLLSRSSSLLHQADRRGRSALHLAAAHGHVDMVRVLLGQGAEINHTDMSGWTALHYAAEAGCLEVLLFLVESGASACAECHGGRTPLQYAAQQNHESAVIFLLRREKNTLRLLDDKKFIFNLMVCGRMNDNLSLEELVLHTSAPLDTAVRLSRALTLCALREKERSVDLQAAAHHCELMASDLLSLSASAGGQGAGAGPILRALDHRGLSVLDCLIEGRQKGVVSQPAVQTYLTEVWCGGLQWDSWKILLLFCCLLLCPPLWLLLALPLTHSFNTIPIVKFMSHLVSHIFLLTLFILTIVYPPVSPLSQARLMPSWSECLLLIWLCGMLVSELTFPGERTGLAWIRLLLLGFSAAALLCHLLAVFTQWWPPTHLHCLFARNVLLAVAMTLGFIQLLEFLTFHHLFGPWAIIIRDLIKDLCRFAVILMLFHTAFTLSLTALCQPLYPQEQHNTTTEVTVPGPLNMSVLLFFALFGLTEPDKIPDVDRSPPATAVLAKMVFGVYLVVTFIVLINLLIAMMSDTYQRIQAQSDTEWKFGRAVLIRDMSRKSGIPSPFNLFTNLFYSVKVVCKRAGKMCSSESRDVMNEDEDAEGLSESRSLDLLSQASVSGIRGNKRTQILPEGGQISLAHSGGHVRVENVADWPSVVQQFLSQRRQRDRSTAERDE

BJ [20] = experiment: BJ-TERT fibroblast viability loss – cell-based, RAS-independent, luminescence, dose response (AID 1933); format: functional; conditions: Homo sapiens
[21] = Luminescence-based dose response cell-based high throughput screening assay for cytotoxic compounds using the IEC-6 intestinal epithelial cell line. [Related pubchem assays: 1858 (Summary AID.), 1825 (Counterscreen.), 1907 (Confirmation screen.)]; format: functional
BJ [22] = experiment: growth inhibition of engineered Ras-driven BJ cells – cell-based, alamar blue fluorescence, cherrypicked samples, dose response (AID 2631); format: functional; conditions: Homo sapiens;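 also: confirmatory dose-response assay in RAS-dependent BJ fibroblasts engineered with TERT, LT and ST, with cytotoxicity read by fluorescence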
BJ [23] = experiment: cells; format: functional, cell-based; conditions: Homo sapiens
[24] = DRD fibroblast viability loss – cell-based, non-viral oncogenic, luminescence, dose response (AID 1934); format: functional; conditions: Homo sapiens
BJ [25] = experiment: BJ-TERT-LT-ST fibroblast viability loss – cell-based, RAS-independent, luminescence, dose response (AID 1935); format: functional; conditions: Homo sapiens;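 also: BJ fibroblasts immortalized with TERT plus LT and ST oncogenes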
Vero = experiment: cells; format: functional; conditions: Chlorocebus sabaeus
[26] = molecular target: Mothers against decapentaplegic homolog 3 (Homo sapiens, UniProt P84022); experiment: inhibitors of SMAD-driven TGF-beta signaling – dose response (AID 715); format: functional
Chain of Mothers against decapentaplegic homolog 3 (P84022 whole entry): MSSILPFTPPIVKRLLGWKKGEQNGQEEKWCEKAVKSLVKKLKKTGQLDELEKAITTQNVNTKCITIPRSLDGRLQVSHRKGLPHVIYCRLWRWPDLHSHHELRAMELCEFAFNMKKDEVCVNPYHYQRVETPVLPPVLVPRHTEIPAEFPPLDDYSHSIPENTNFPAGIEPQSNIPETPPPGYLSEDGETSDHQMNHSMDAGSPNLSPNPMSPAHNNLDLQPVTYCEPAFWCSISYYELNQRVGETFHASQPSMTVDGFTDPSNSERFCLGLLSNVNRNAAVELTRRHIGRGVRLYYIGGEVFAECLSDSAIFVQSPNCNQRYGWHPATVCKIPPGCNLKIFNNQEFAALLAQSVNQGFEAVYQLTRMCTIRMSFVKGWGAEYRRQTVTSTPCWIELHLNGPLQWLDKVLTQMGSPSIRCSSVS

[27] = molecular target: Protein-tyrosine kinase 2-beta (Homo sapiens, UniProt Q14289);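 also: potency of inhibitors of PYK2 kinase phosphorylation of poly-GT substrate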
[28] = molecular target: Eukaryotic translation initiation factor 4E (Mus musculus, UniProt P63073); experiment: blockers of eIF4G binding by eIF4E – biochemical, TR-FRET, dose response (AID 855); format: functional;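 also: potency for disrupting eIF4E binding to eIF4GI seen as loss of FRET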
Chain of Eukaryotic translation initiation factor 4E (P63073 whole entry): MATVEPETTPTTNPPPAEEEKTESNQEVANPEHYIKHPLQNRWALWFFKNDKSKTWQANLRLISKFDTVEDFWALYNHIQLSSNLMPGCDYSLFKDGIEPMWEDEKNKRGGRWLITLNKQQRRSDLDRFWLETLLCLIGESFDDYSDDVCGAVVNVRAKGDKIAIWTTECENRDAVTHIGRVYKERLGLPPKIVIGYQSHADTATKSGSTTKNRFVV

COc1ccc(N2CCN(C3=C(Cl)C(=O)N(c4ccc(Cl)c(Cl)c4)C3=O)CC2)cc1
IC50 (Bcl-2-related protein A1 [1]): 6.79 µM (active)
IC50 (Bcl-2-related protein A1 [2]): 1.25 µM (active)
IC50 [3]: > 100 µM (not active)

CCCC1=NN2C(=N)/C(=C/c3c[nH]c4ccccc34)C(=O)N=C2S1
IC50 [4]: 64.6 µM (active)

COc1cc(/C=C2\SC(=N)N(c3ccc(F)cc3)C2=O)ccc1O
IC50 (Insulin-degrading enzyme): 29.3 µM (not active)
IC50 [5]: 39.5 µM (not active)

CC(C)(C)OC(=O)[C@@H](CCC(=O)N1CCN(c2ccc(C#N)cc2)CC1)n1c(=S)[nH]c2ccccc2c1=O
IC50 (Estrogen receptor): 0.08 µM (not active)

COc1ccc(CNC2CCCc3ccccc32)cc1 (stereo unspecified)
IC50 [6]: 3.59 µM (active)

Cc1cc(C(=O)Cn2cnc3c2c(=O)n(C)c(=O)n3C)c(C)n1Cc1ccccc1
EC50 [7]: > 30 µM (not active)

CC(C)C(=O)N1CCN(c2ccc(NC(=O)c3ccc([N+](=O)[O-])o3)cc2Cl)CC1
CC50 (HeLa): 3.45 µM (active)
AC50 [8]: 8.27 µM (active)
AC50 [9]: 7.05 µM (active)
AC50 [10]: 27.8 µM (active)
AC50 [11]: 0.954 µM (active)
AC50 (Paired box protein Pax-8): 3.25 µM (active)

CCCCC(=O)/C=C/n1c(=S)oc2ccccc21
EC50 (HEK293 [12]): > 2.21 µM (active)
CC50 [13]: 19.8 µM (active)
EC50 (HEK293 [14]): > 59.6 µM (inactive)
IC50 [15]: > 100 µM (active)

O=C(O)c1ccc([N+](=O)[O-])c2c1NC(c1ccccc1)C1CC=CC21 (stereo unspecified)
EC50 (Bcl-2-like protein 10): 3.92 µM (active)

C=CCSc1nnc2c3cccc(C)c3nc-2[nH]1
EC50 [16]: 0.317 µM (active)
EC50 [17]: 0.31 µM (active)
EC50 [18]: 0.311 µM (active)
EC50 [19]: < 0.1 µM (active)

O=S(=O)(Nc1ccccc1N1CCCCC1)c1cccs1
EC50 (Mucolipin-3): 2.3 µM (active)
EC50 (Ion channel NompC): > 29.9 µM (not active)

Cc1ccc(/C=N/NC(=O)c2[nH]nc3c2CCCC3)cc1
EC50 (BJ [20]): 0.31 µM (inconclusive)
IC50 [21]: 0.32 µM (active)
EC50 (BJ [22]): < 0.104 µM (active)
EC50 (BJ [23]): 0.382 µM (active)
EC50 [24]: 0.711 µM (inconclusive)
EC50 (BJ [25]): 0.37 µM (inconclusive)
CC50 (Vero): 0.24 µM (active)

O=[N+]([O-])c1cc(/C=N\Nc2nccs2)ccc1O
IC50 [26]: 30.9 µM (not active)
IC50 [27]: 3.15 µM (active)
IC50 [28]: 10.8 µM (active)
